Laboratory results reported in PubChem BioAssay AID2060888 (Molecular Pharmacology Branch, DTP, NCI, 2025).
Several values for one entry are separate records, joined by “and”; a condition that tells them apart may be missing. Equal entries are not always repeated.

Tested on: 695427-040-R-J1-PDC complex spheroid viability
Experiment: Anticancer human tumor 695427-040-R-J1-PDC patient-derived colon adenocarcinoma cell line growth inhibition [RAS]
Details: for viability, T/C: stronger effect = lower value
Source text: RAS pathway inhibitors in Combinations in Complex Spheroids
A high-throughput screen of multi-cell type tumor spheroids was designed to identify active combinations of RAS pathway inhibitors and targeted small molecules. Complex spheroids include a stromal component modeled by human endothelial cells (HUVEC) and fibroblasts modeled by human mesenchymal stem cells (MSCs). The concentration ranges selected for each drug and investigational agent were based upon clinically achievable concentrations if the clinical Cmax of the agent was known.
Compounds. The drugs and investigational agents: abemaciclib (NSC768073), cobimetinib (NSC768068), divarasib (GDC6063, NSC841802), docetaxel (NSC628503), GDC-1971 (RLY-1971, NSC841576), gemcitabine (NSC613327), inavolisib (NSC800729), ipatasertib (NSC767898), KB-0742 (NSC834161), MRTX-1133 (NSC836407), osimertinib (NSC779217), RMC-4630 (NSC839698), RMC-6236 (NSC851965), RMC-6291 (NSC852671), Ro-3306 (NSC812927), sapanisertib (NSC764658), SN-38 (NSC673596), staurosporine (NSC755774), SY5609 (NSC837396), and tovorafenib (DAY101, NSC766906), were obtained from the National Cancer Institute (NCI) Developmental Therapeutics Program Chemical Repository. The FDA-approved anticancer drug set is available from the NCI Developmental Therapeutics Program. […] The stock solutions were prepared in dimethyl sulfoxide (DMSO, Sigma-Aldrich, St. Louis, MO, cat. D2650) at 800-fold the tested concentration and stored at -70 degrees C prior to their use. All drugs and investigational agents were tested over a range starting from a high concentration at or near the clinical Cmax and decreasing in half-log increments. If the clinical Cmax for an agent had not been determined, the highest concentration tested was 10 microM.
Cell Culture. All cells were maintained in an incubator at 37 degrees C and 5% CO2 with 95% humidity. The PDC lines were cultured according to standard operating procedures established by the NCI PDMR. All PDCs were thawed and cultured in Matrigel-coated flasks prepared with a working solution of 1X Ham's F-12 nutrient mix, without supplementation (Invitrogen, Waltham, MA, cat. 11765054), 100 U/mL penicillin-streptomycin (Invitrogen, cat. 15140122), and 2.5% Matrigel (Corning Inc., Corning, NY, cat. 354248) for the first three passages. The 362531-283-R-J2-PDC and 782815-120-R-J1-PDC lines were cultured in 6C/Colon 1B media, which includes advanced DMEM/F-12 (Thermo Fisher Scientific, cat. 12634028), 10 mM HEPES (Thermo Fisher Scientific, cat. 15630080), 1X GlutaMAX supplement (Thermo Fisher Scientific, cat. 35050061), 0.1 mg/mL primocin (InvivoGen, San Diego, CA, cat. ant-pm-2), 10% defined fetal bovine serum, heat inactivated (HyClone Laboratories Inc., Logan, UT, cat. SH30070.03HI), 50% L-WRN conditioned media (ATCC, cat. CRL-3276), 1.25 mM N-Acetyl-L-cysteine (Sigma-Aldrich, cat. A9165), 10 mM nicotinamide (Sigma-Aldrich, cat. N0636), 1X B-27 supplement (Thermo Fisher Scientific, cat. 17504044), 1X N-2 supplement (Thermo Fisher Scientific, cat. 17502048), 50 ng/mL human EGF (Thermo Fisher Scientific, cat. PHG0311), and 10 microM Y-27632 dihydrochloride (Tocris Bioscience, cat. 1254). The K12877-001-R-J1-PDC line was cultured in 6I media, which includes all 6C/Colon 1B media plus 10 ng/mL human FGF-10 (PeproTech, cat. 100-26), 1 ng/mL human FGF-2 (PeproTech, cat. 100-18B), 1 µM prostaglandin E2 (Tocris Bioscience, cat. 2296), […] hydrocortisone (Sigma-Aldrich, cat. H4001), and […] bovine insulin (Sigma-Aldrich, cat. I6634). The K86415-001-R-J1-PDC line was cultured in 6D media, which includes all 6C/Colon 1B media components minus the L-WRN conditioned media. The 485176-168-R4-J1-PDC was cultured in PANC media, which includes all 6C/Colon 1B media plus 100 ng/mL human FGF-10 (PeproTech, cat. 100-26), 500 nM SB-431542 (Selleckchem, cat. S1067), and 10 nM gastrin (Tocris Bioscience, cat. 3006). […]
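Note: viability read after seven days of drug exposure.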
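Throughout, for viability, T/C: 100% = DMSO vehicle control viability.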

In the case of `CCC(CC)c1cc(NC2CCC(N)C2)n2nccc2n1` (centres undefined) + C=CC(=O)N1CCN(c2nc(OCC3CCCN3C)nc3c(F)c(-c4nc(N)cc(C)c4C(F)(F)F)c(Cl)cc23)C(C)C1, the IC50 (curve of first compound, second compound 0.00316 µM) is reported as 1920 nM, the IC50 (curve of first compound, second compound 0.01 µM) is reported as 2070 nM and the IC50 (curve of first compound, second compound 0.0316 µM) is reported as 1950 nM. It also gave an IC50 (curve of first compound, second compound 0.1 µM) of 1870 nM, an IC50 (curve of first compound, second compound 0.316 µM) of 1950 nM and an IC50 (curve of first compound, second compound 1 µM) of 1800 nM. The viability, T/C (second compound 0.00316 µM, first compound 0.0316 µM) was 93.3%, the viability, T/C (second compound 0.00316 µM, first compound 0.1 µM) was 94.8% and the viability, T/C (second compound 0.00316 µM, first compound 0.316 µM) was 109%. For the same compound, the viability, T/C (second compound 0.00316 µM, first compound 1 µM) was 106%, the viability, T/C (second compound 0.00316 µM, first compound 3.16 µM) was 9.52% and the viability, T/C (second compound 0.00316 µM, first compound 10 µM) was 12.3%. The viability, T/C (second compound 0.01 µM, first compound 0.0316 µM) was 105%, the viability, T/C (second compound 0.01 µM, first compound 0.1 µM) was 96.1% and the viability, T/C (second compound 0.01 µM, first compound 0.316 µM) was 119%. It also gave a viability, T/C (second compound 0.01 µM, first compound 1 µM) of 116%, a viability, T/C (second compound 0.01 µM, first compound 3.16 µM) of 15.3% and a viability, T/C (second compound 0.01 µM, first compound 10 µM) of 11.1%. It also gave a viability, T/C (second compound 0.0316 µM, first compound 0.0316 µM) of 105%, a viability, T/C (second compound 0.0316 µM, first compound 0.1 µM) of 99.4% and a viability, T/C (second compound 0.0316 µM, first compound 0.316 µM) of 105%. The viability, T/C (second compound 0.0316 µM, first compound 1 µM) was 101%, the viability, T/C (second compound 0.0316 µM, first compound 3.16 µM) was 13% and the viability, T/C (second compound 0.0316 µM, first compound 10 µM) was 11.9%. For the same compound, the viability, T/C (second compound 0.1 µM, first compound 0.0316 µM) was 100%, the viability, T/C (second compound 0.1 µM, first compound 0.1 µM) was 98.2% and the viability, T/C (second compound 0.1 µM, first compound 0.316 µM) was 116%. It also gave a viability, T/C (second compound 0.1 µM, first compound 1 µM) of 94.4%, a viability, T/C (second compound 0.1 µM, first compound 3.16 µM) of 13.1% and a viability, T/C (second compound 0.1 µM, first compound 10 µM) of 12.1%. It also gave a viability, T/C (second compound 0.316 µM, first compound 0.0316 µM) of 89.4%, a viability, T/C (second compound 0.316 µM, first compound 0.1 µM) of 95.8% and a viability, T/C (second compound 0.316 µM, first compound 0.316 µM) of 105%. It also gave a viability, T/C (second compound 0.316 µM, first compound 1 µM) of 111%, a viability, T/C (second compound 0.316 µM, first compound 3.16 µM) of 12.4% and a viability, T/C (second compound 0.316 µM, first compound 10 µM) of 14.7%. The viability, T/C (second compound 1 µM, first compound 0.0316 µM) was 89.9%, the viability, T/C (second compound 1 µM, first compound 0.1 µM) was 97.2% and the viability, T/C (second compound 1 µM, first compound 0.316 µM) was 105%. It also gave a viability, T/C (second compound 1 µM, first compound 1 µM) of 90.9%, a viability, T/C (second compound 1 µM, first compound 3.16 µM) of 7.42% and a viability, T/C (second compound 1 µM, first compound 10 µM) of 13.8%.

With `CCC(CC)c1cc(NC2CCC(N)C2)n2nccc2n1` (centres undefined) the viability, T/C (compound 0.0316 µM) was 104% [middle of 4 runs], the viability, T/C (compound 0.1 µM) was 96.3% [middle of 4 runs] and the viability, T/C (compound 0.316 µM) was 106% (2×) and 127% and 91%. For the same compound, the viability, T/C (compound 1 µM) was 108% [middle of 4 runs], the viability, T/C (compound 3.16 µM) was 15.6% [middle of 4 runs] and the viability, T/C (compound 10 µM) was 12.6% [middle of 4 runs]. For the same compound, the IC50 (curve of compound) was 2170 nM and 1960 nM and 1820 nM.
